The results in this text go back to patent US6020328A, “20-keto-11β-arylsteroids and their derivatives having agonist or antagonist hormonal properties” (Research Triangle Institute, priority 1998, dated 2000).

The subject of experiment [1] is rabbits. The experiment can be described thus: anti-McGinty test (antagonist, test compound plus progesterone). The experiment is classed as in vivo, rabbit. The following applies: for McPhail Index, McGinty Assay (Antagonist): rabbit, in vivo.
Description: (§2) Progestational activity and antiprogestational activity were determined in rabbits by means of the McGinty test (test compound alone, procedure of McGinty et al., Endocrinology, 24:829-832 (1939)) or anti-McGinty test (test compound plus progesterone, procedure of Tamara et al., Jpn. J. Fertil. Steril. 24:48-81 (1979)). Results were scored according to McPhail (McPhail, J. Physiol., 83:146 (1934)).
Experiment [2] deals with T1, androgen receptor (Rattus norvegicus, UniProt P15207).
T1 construct: using the cytosolic receptor from rat central prostate; from tissue
T1 sequence (P15207 1-902): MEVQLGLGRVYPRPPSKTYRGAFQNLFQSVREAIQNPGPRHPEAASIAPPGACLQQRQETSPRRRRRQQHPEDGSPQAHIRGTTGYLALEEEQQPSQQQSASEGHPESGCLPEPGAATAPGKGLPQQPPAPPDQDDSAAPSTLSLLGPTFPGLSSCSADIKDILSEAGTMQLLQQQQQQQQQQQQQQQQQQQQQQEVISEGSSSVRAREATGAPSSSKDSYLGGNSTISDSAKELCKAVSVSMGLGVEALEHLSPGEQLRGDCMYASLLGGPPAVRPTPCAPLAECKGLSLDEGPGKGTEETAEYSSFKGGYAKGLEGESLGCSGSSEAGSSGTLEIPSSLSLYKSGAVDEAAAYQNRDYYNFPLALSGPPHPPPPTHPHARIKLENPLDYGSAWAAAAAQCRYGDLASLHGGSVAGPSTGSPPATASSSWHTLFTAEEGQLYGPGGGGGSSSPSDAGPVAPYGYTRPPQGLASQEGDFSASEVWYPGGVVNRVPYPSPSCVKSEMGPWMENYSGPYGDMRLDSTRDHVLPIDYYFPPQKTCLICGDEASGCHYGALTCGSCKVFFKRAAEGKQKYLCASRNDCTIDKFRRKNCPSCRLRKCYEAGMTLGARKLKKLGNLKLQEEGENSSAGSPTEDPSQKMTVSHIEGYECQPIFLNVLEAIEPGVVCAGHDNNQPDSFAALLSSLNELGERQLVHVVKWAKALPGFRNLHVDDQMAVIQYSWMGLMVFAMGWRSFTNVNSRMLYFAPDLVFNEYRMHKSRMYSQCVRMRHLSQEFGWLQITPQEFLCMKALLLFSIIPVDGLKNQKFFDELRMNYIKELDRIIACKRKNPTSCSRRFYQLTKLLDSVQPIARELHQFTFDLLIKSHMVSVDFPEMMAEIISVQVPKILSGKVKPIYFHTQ
The experiment in a line: androgen receptor binding.

The test system of experiment [3] is rabbits. The experiment can be described thus: McGinty test (agonist, test compound alone). The experiment is classed as in vivo, rabbit.
Description: as §2
Experiment [4] deals with progestin receptor (hPR). The experiment can be described thus: progestin receptor binding. The settings on record: cytosol from human T-47D breast cells; [3H]-R5020; read-out: Receptor Binding Affinity hPR IC50.
Excerpt: However, the receptors were of human origin and a different radioligand was used. Thus, for progestin receptor binding the receptor was obtained in cytosol from human T-47D breast cells and [^3 H]-R5020 was used as the radioligand. Data are expressed as IC50 values, i.e., the concentration of compound that inhibits the radioligand binding by 50%.
In experiment [5] the test system is immature male rats. The experiment can be described thus: antiglucocorticoid activity in vivo (thymus weight). Also on record: species or system rat. As to the method:
The ability of the compounds to block the effects of dexamethasone (6 μg per day for 7 days) on thymus weight of immature male rats was assessed.

Experiment [6] has as its system Human T-47D breast cells. The experiment in a line: T-47D cell proliferation, antagonist format (inhibition of 0.15 nM R5020-mediated proliferation). The following applies: T47D; for EC50: inhibition of 0.15 nM R5020-mediated proliferation, N.D. not detected; for Emax: maximum % inhibition, 0.15 nM R5020, read-out: Cell Proliferation Antagonist maximum % Inhib. The experiment is classed as cell-based. As to the method:
(§1) Human T-47D breast cells grown in nutrient media were incubated with the standard progestin R5020 alone or with R5020 plus test compound and then assessed by standard procedures for proliferation using incorporation of [^3 H]-thymidine as the measurement. […] The maximum % inhibition (a measure of the efficacy of the compounds) is also given. In the agonist format of this assay the compounds were tested at concentrations ranging from 0.01 to 10 nM and the maximum % stimulation at any dose is listed in Table 2. […] However, the presence of a very polar hydroxyl group in the 17α-position greatly diminishes antiprogestational activity and this holds even when the OH is separated from the 17-carbon atom by a methylene group.

The test system of experiment [7] is Human T-47D breast cells. The experiment in a line: T-47D cell proliferation, agonist format. The format is cell-based. The following applies: T47D, 0.01 to 10 nM, maximum at any dose, read-out: Cell Proliferation Agonist maximum % Stim. As for the experimental part: as §1
The test system of experiment [8] is Ishikawa human endometrial adenocarcinoma cell line. The experiment in a line: anti-estrogenic activity in Ishikawa cells (block of estrogen-stimulated alkaline phosphates activity). The format is cell-based. The settings on record: for anti-estrogenic activity in the Ishikawa cell assay: in words, concentration not given.
For experiment [9], the system named is immature New Zealand white rabbits. The experiment in a line: anti-Clauberg assay for oral antiprogestational activity. The experiment is classed as in vivo, rabbit. The following applies: for ED50, anti-Clauberg assay: 5 days; for ED50, anti-Clauberg assay / effectiveness in inhibiting the endometrial response: with progesterone SC. As to the method: In this assay immature New Zealand white rabbits were primed with estrogen by treatment with estradiol for six days. They were then given progesterone subcutaneously (SC) and the test compound (orally) for 5 days. On the day following the treatment, the uteri were excised and examined histologically. The endometrial response was graded by the method of McPhail and the % inhibition was determined at each dose. Statistical analysis provides for an ED50 value.

In experiment [10] the test system is immature female rabbits. The experiment can be described thus: anti-estrogenic activity in vivo (uterine weight). Further details: species or system rabbit. As for the experimental part: Steril. 52: 1055-1060 (1989). […] The weight of uteri from untreated immature rabbits was increased from 246±87 (S.E.) mg with no estradiol to 1402±104 mg with estradiol alone. Concurrent treatment of rabbits with estradiol and 10 mg/day of 17α-acetoxy-11β-(4-(N-piperidino)phenyl)-19-norpregna-4,9-diene-3,20-dione reduced the uterine weights to 998±98 mg. Likewise 17α-acetoxy-11β-(4-N-pyrrolidino)phenyl)-19-norpregna-4,9-diene-3,20-dione at 10 mg/day reduced the uterine weight to 919±115 mg, and 17α-acetoxy-11β-(1-methyl-5-indolyl)-19-norpregna-4,9-diene-3,20-dione reduced uterine weight to 956±115 mg at the same dose.

Setting [11] is: test compound 10 mg/day oral + 5 μg estradiol per day.

The structures appear in SMILES notation. Where “and” joins values, the source holds several entries; their conditions need not be identical. Equal values may be shown once.

Turning to `CN(C)c1ccc([C@H]2C[C@@]3(C)[C@@H](CC[C@@]34OC(=O)CCC4=O)[C@@H]3CCC4=CC(=O)CCC4=C32)cc1` [II 4-Me2 N H O H -- H H H, 11β-[4-(N,N-dimethylamino)phenyl]-3,20-dioxo-17α-hydroxy-19,21-dinorchola-4,9-dien-24-oic acid δ-lactone], the “antiprogestational activity, anti-McGinty test” value in [1] (in words) is “potent antiprogestational activity”. Also, the IC50 in experiment [2] (cytosolic receptor from rat central prostate, [3H]-5α-dihydrotestosterone) was 90 nM; in experiment [4], 11.9 nM. Also, the androgen receptor affinity result in [2] (in words) is on record as “very low affinity”. In addition, the “McPhail Index, McGinty Assay (Agonist)” value in [3] (dose 0.3 micrograms) is 0 +/- 0; in [3] (dose 3 micrograms) it was 0 +/- 0; in experiment [3] (dose 30 micrograms) it was 0. In addition, the “progestational activity, McGinty test” value in experiment [3] (in words) is recorded as “no evidence of progestational activity”.
As to `C[C@@H]1C[C@H]2[C@@H]3CCC4=CC(=O)C=C[C@]4(C)[C@@]3(F)[C@@H](O)C[C@]2(C)[C@@]1(O)C(=O)CO` [dexamethasone, reference compound], in [5] (6 μg dexamethasone alone per day, 7 days), the thymus weight is 65 ± 8 mg.
Regarding `CC(=O)OC[C@]1(C(C)=O)CC[C@H]2[C@@H]3CCC4=CC(=O)CCC4=C3[C@@H](c3ccc(N(C)C)cc3)C[C@@]21C` [I 4-Me2 N H O H CH2 --O--CO--CH3 H], the “McPhail Index, McGinty Assay (Antagonist)” value (“McPhail Index … (Antagonist)” below) in [1] is 3.4 +/- 0.1 and 2.6 +/- 0.2 and 2.0 +/- 0.2. The response in [6] was half-maximal at 8.9 nM (EC50). For the same compound, the Emax is 92% in experiment [6] and 20% in [7]. For the same compound, the figures for the “McPhail Index, McGinty Assay (Agonist)” value in [3] (dose 0.3 micrograms), in [3] (dose 3 micrograms) and in experiment [3] (dose 30 micrograms) were 0 +/- 0, 0.6 +/- 0.2 and 1.0 +/- 0.1, respectively. Also, the IC50 in [4] worked out at 10.6 nM.
With `CC(=O)O[C@]1(C(C)=O)CC[C@H]2[C@@H]3CCC4=CC(=O)CCC4=C3[C@@H](c3ccc(N4CCCCC4)cc3)C[C@@]21C` [I 4-(N-piperidino) H O H --O--CO--CH3 H, 17α-Acetoxy-11β-[4-(N-piperidino)phenyl]-19-norpregna-4,9-diene-3,20-dione], in experiment [8] (concentrations up to 10^-6 M), the “anti-estrogenic activity in the Ishikawa assay” value is “inactive”. The compound also registered an EC50 in experiment [6] of 0.2 nM. Moreover, the Emax in experiment [6] stood at 117%; in experiment [7] it was 0%. In addition, the “ED50, anti-Clauberg assay” value in experiment [9] is recorded as 0.9 mg/day. Moreover, in experiment [9] (more potent than mifepristone), the “potency relative to mifepristone” value is “about 5 fold”. In experiment [9], the “effectiveness in inhibiting the endometrial response” value amounted to 100%. Moreover, the “McPhail Index, McGinty Assay (Agonist)” value is 0.1 +/- 0.1 in experiment [3] (dose 0.3 micrograms), 0 +/- 0 in experiment [3] (dose 3 micrograms) and 0.2 +/- 0.1 in experiment [3] (dose 30 micrograms). Further, in experiment [10] (setting [11]), the uterine weight came to 998 ± 98 mg. For the same compound, the IC50 in [4] was found to be 1.2 nM.
`CC(=O)[C@@]1(CO)CC[C@H]2[C@@H]3CCC4=CC(=O)CCC4=C3[C@@H](c3ccc(N(C)C)cc3)C[C@@]21C` [I 4-Me2 N H O H --CH2 --OH H, 11β-(4-(N,N-dimethylamino)phenyl)-17α-hydroxymethyl-19-norpregna-4,9-diene-3,20-dione]: the “McPhail Index … (Antagonist)” value in experiment [1] is 2.9 +/- 0.5 and 2.8 +/- 0.2 and 2.7 +/- 0.2. Also, the Emax is 23% in [6] and 11% in [7]. For the same compound, the “McPhail Index, McGinty Assay (Agonist)” value in experiment [3] (dose 0.3 micrograms), in experiment [3] (dose 3 micrograms) and in [3] (dose 30 micrograms) was 0 +/- 0 throughout. Moreover, the 50% inhibitory concentration (IC50) in experiment [4] was found to be 43.6 nM.
For the compound `CC#C[C@]1(O)CC[C@H]2[C@@H]3CCC4=CC(=O)CCC4=C3[C@@H](c3ccc(N(C)C)cc3)C[C@@]21C` [mifepristone, reference compound], in experiment [9], the “ED50, anti-Clauberg assay” value is 4.14 mg/day and the “effectiveness in inhibiting the endometrial response” value came to 67%.
For the compound `CC(=O)O[C@]1(C(C)=O)CC[C@H]2[C@@H]3CCC4=CC(=O)CCC4=C3[C@@H](c3ccc4c(ccn4C)c3)C[C@@]21C` [I 1-methylindol-5-yl O H --O--CO--CH3 H, 17α-Acetoxy-11β-(1-methylindol-5-yl)-19-norpregna-4,9-diene-3,20-dione], the “anti-estrogenic activity in the Ishikawa cell assay” value in [8] was “inactive”. In addition, the EC50 in experiment [6] came out at 0.7 nM. The Emax in [6] was 110%; in experiment [7], 17%. The thymus weight in experiment [5] (6 μg dexamethasone + 1,000 μg test compound per day, 7 days) stood at 105 ± 8 mg; in [5] (test compound given alone) it was 270 ± 13 mg. Further, the antiglucocorticoid activity entry in experiment [5] (1000 μg per day, in words) was “little or no antiglucocorticoid activity in vivo”. Moreover, the glucocorticoid activity entry in [5] (compound given alone, in words) was “Neither did it show significantglucocorticoid activity”. The “McPhail Index, McGinty Assay (Agonist)” value in [3] (dose 0.3 micrograms), in experiment [3] (dose 3 micrograms) and in experiment [3] (dose 30 micrograms) was 0 +/- 0 each time. Also, in [10] (setting [11]), the uterine weight amounted to 956 ± 115 mg. Besides, in [4], the IC50 came to 2.4 nM.
With `CC(=O)O[C@]1(C(C)=O)CC[C@H]2[C@@H]3CCC4=CC(=O)CCC4=C3[C@@H](c3ccc(N(C)C)c(F)c3)C[C@@]21C` [I 4-Me2 N 3-F O H --O--CO--CH3 H, 17α-Acetoxy-11β-(4-N,N-Dimethylamino-3-fluorophenyl)-19-norpregna4,9-diene-3,20-dione], the “McPhail Index … (Antagonist)” value in experiment [1] was 3.6 +/- 0.1 and 3.3 +/- 0.3 and 2.8 +/- 0.3. Also, the EC50 in [6] came to 0.7 nM. The Emax in experiment [6] stood at 101%; in [7], 30%. The “McPhail Index, McGinty Assay (Agonist)” value in experiment [3] (dose 0.3 micrograms) is 2.5 +/- 0.2; in experiment [3] (dose 3 micrograms) it was 3.0 +/- 0.3; in experiment [3] (dose 30 micrograms), 3.6 +/- 0.1. Besides, in [4], the IC50 amounted to 2.2 nM.
With `CC(=O)O[C@]1(C(C)=O)CC[C@H]2[C@@H]3CCC4=CC(=O)CCC4=C3[C@@H](c3ccc(N4CCCC4)cc3)C[C@@]21C` [I 4-(N-pyrrolidino) H O H --O--CO--CH3 H, 17α-Acetoxy-11β-[4-(N-pyrrolidino)phenyl]-19-norpregna-4,9-diene-3-20-dione], the “anti-estrogenic activity in the Ishikawa cell assay” value in experiment [8] is “inactive”. This compound also gave an EC50 in experiment [6] of 0.4 nM. Besides, the Emax stood at 108% in experiment [6] and 1% in experiment [7]. Also, the “McPhail Index, McGinty Assay (Agonist)” value in experiment [3] (dose 0.3 micrograms), in experiment [3] (dose 3 micrograms) and in [3] (dose 30 micrograms) was 0 +/- 0 in each case. For the same compound, in experiment [10] (setting [11]), the uterine weight was 919 ± 115 mg. In experiment [4], the half-inhibitory concentration (IC50) worked out at 0.8 nM.
As to `C[C@]12CC[C@@H]3c4ccc(O)cc4CC[C@H]3[C@@H]1CC[C@@H]2O` [estradiol, reference compound], in experiment [10] (estradiol alone, 5 μg per day), the uterine weight was determined as 1402 ± 104 mg.

As usually defined, the IC50 is the concentration that inhibits the measured activity by half. For orientation: EC50 means the midpoint of the concentration-response curve.
